Activity calls are given as the source filed them. No cut-off for these calls is given here.
What was measured:
[1] = target: 5-hydroxytryptamine receptor 6 (Homo sapiens, UniProt P50406); test: biochemical
Description: Displacement of [3H]LSD from human 5HT6 receptor expressed in HEK293 cells

[2] = target: T1, CYP1A2 (Homo sapiens, UniProt P05177); test: Inhibition of human CYP1A2 at 3 uM; format: ADME
T1 sequence (P05177 whole entry): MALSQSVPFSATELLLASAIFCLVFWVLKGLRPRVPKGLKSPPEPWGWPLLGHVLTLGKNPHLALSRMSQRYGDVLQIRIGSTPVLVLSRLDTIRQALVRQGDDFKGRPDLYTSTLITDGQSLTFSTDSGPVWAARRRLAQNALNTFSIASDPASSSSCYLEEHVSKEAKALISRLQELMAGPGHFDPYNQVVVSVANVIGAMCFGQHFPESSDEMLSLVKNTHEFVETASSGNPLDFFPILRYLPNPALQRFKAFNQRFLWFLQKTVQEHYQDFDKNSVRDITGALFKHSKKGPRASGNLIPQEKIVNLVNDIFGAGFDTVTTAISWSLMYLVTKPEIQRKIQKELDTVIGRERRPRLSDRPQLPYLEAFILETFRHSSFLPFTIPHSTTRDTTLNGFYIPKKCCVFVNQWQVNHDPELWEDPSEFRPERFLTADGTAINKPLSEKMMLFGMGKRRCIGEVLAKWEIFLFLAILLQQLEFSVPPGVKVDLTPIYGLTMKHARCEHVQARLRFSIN

[3] = target: T1, CYP1A2; test: Inhibition of human CYP1A2 at 10 uM; format: ADME
[4] = target: T2, CYP2A6 (Homo sapiens, UniProt P11509); test: Inhibition of human CYP2A6 at 3 uM; format: ADME
T2 sequence (P11509 whole entry): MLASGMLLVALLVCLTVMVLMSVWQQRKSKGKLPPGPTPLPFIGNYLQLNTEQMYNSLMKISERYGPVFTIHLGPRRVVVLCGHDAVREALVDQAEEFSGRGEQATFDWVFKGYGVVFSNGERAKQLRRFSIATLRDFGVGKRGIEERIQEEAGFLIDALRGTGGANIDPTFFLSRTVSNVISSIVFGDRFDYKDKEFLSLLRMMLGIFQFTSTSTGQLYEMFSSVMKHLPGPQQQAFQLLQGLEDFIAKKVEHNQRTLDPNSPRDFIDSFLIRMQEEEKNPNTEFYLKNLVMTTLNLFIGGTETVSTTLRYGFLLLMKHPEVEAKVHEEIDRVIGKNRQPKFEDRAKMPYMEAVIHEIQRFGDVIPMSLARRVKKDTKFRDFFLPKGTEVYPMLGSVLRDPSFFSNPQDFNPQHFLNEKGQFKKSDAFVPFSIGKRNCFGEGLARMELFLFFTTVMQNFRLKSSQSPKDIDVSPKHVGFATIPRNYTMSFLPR

[5] = target: T2, CYP2A6; test: Inhibition of human CYP2A6 at 10 uM; format: ADME
[6] = target: T3, CYP2C19 (Homo sapiens, UniProt P33261); test: Inhibition of human CYP2C19 at 3 uM; format: ADME
T3 sequence (P33261 whole entry): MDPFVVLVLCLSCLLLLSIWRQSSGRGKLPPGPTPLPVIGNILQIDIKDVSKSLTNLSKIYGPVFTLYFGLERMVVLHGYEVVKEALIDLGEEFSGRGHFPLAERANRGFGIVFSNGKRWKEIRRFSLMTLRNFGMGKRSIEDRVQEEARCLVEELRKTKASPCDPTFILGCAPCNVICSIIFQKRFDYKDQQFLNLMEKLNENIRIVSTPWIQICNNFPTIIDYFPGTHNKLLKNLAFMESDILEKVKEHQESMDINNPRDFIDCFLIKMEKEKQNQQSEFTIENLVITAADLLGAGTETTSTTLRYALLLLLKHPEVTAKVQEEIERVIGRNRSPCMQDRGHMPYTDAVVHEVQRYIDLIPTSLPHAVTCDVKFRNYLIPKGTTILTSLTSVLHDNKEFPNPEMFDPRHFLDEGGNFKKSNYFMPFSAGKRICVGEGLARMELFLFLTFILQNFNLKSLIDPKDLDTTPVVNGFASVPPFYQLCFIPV

[7] = target: T3, CYP2C19; test: Inhibition of human CYP2C19 at 10 uM; format: ADME
[8] = system: CYP2C9*1; test: Inhibition of human CYP2C9*1 at 3 uM; format: ADME
[9] = system: CYP2C9*1; test: Inhibition of human CYP2C9*1 at 10 uM; format: ADME
[10] = target: T4, CYP2D6 (Homo sapiens, UniProt P10635); test: Inhibition of human CYP2D6 at 3 uM; format: ADME
T4 sequence (P10635 whole entry): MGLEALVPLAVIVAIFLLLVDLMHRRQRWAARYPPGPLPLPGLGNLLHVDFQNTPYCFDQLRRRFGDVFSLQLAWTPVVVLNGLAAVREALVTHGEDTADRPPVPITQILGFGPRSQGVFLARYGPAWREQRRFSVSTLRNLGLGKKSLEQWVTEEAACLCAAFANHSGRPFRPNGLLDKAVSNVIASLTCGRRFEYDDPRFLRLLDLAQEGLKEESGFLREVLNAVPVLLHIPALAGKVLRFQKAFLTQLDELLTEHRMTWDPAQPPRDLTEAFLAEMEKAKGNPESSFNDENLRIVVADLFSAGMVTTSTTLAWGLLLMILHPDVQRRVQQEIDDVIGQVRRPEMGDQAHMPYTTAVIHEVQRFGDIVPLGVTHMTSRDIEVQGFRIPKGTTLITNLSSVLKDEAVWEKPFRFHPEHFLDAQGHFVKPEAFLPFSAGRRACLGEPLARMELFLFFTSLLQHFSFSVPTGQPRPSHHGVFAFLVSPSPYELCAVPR

[11] = target: T4, CYP2D6; test: Inhibition of human CYP2D6 at 10 uM; format: ADME
[12] = target: T5, CYP3A4 (Homo sapiens, UniProt P08684); test: Inhibition of human CYP3A4 at 3 uM; format: ADME
T5 sequence (P08684 whole entry): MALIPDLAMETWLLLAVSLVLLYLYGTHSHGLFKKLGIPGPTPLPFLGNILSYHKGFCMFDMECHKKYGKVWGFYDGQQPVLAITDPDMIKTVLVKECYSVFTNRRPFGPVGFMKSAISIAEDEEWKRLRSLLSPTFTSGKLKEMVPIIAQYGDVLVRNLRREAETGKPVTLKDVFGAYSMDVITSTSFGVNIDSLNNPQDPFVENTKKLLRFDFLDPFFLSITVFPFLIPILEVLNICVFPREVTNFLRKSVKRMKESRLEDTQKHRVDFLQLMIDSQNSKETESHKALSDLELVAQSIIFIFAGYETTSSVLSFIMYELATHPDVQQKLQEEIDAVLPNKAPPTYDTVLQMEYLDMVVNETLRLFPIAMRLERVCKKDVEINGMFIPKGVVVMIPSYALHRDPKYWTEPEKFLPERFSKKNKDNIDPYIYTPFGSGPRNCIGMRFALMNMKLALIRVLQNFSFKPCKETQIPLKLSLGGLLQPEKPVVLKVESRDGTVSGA

[13] = target: T5, CYP3A4; test: Inhibition of human CYP3A4 at 10 uM; format: ADME
[14] = target: 5-hydroxytryptamine receptor 4 (Homo sapiens, UniProt Q13639); test: Inhibition of human 5HT4 receptor expressed in CHO cells after 5 hrs by luciferase reporter assay; format: cell-based
5-hydroxytryptamine receptor 4, sequence (Q13639 whole entry): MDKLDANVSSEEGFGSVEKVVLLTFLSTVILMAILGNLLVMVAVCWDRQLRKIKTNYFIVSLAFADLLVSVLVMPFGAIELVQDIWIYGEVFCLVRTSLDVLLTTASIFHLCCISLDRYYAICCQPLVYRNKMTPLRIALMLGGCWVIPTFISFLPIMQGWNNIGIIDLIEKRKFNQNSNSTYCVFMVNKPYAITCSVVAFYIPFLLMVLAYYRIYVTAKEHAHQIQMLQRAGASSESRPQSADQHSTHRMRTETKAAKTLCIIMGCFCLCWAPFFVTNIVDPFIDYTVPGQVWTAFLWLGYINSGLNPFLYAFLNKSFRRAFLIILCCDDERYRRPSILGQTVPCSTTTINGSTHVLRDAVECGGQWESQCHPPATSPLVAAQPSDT

[15] = target: 5-hydroxytryptamine receptor 7 (Homo sapiens, UniProt P34969); test: Inhibition of human 5HT7 receptor expressed in CHO cells after 5 hrs by luciferase reporter assay; format: cell-based
5-hydroxytryptamine receptor 7, sequence (P34969 whole entry): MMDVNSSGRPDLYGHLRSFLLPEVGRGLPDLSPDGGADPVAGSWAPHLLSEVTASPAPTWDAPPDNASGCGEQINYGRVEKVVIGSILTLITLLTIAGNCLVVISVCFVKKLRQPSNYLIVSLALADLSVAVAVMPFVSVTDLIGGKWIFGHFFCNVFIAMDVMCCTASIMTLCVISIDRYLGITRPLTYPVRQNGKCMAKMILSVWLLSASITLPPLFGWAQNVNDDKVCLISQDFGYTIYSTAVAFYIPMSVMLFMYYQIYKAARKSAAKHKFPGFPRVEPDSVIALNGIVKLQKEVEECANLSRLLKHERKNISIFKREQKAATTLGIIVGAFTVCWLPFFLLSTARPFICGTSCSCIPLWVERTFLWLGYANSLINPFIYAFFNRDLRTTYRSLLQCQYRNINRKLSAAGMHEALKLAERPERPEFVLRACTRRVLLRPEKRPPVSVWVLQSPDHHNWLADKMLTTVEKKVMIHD

[16] = target: T6, Muscarinic acetylcholine receptor M1 (Homo sapiens, UniProt P11229); test: Inhibition of human muscarinic M1 receptor expressed in CHO cells after 5 hrs by luciferase reporter assay; format: cell-based
T6 sequence (P11229 whole entry): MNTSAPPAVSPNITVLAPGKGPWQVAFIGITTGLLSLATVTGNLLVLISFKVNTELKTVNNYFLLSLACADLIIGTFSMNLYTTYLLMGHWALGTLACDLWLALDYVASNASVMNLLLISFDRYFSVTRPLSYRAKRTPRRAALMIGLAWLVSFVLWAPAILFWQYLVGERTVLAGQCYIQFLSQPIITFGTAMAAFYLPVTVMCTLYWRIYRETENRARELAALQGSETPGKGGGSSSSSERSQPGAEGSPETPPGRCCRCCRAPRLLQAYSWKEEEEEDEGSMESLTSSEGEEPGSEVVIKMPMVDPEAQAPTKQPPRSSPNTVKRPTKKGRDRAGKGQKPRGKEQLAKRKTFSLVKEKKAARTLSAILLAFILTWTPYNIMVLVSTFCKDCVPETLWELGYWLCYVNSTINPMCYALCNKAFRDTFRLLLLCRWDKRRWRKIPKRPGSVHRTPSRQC

[17] = system: Rattus norvegicus; test: Cognitive enhancing effect against scopolamine-induced memory deficit in Wistar rat at 10 mg/kg, po by novel object recognition test; format: functional, organism-based; set-up: dose 10 mg/kg
[18] = system: Rattus norvegicus; test: Cognitive enhancing effect against scopolamine-induced memory deficit in Wistar rat at 30 mg/kg, po administered 60 mins before acquisition training measured after 5 days by Morris water maze test; format: functional, organism-based; set-up: dose 30 mg/kg
[19] = Cmax in fasted Wistar rat at 10 mg/kg, po; format: ADME, organism-based; set-up: dose 10 mg/kg, route oral; settings: in vivo
[20] = Cmax in fasted Wistar rat at 10 mg/kg, iv; format: ADME, organism-based; set-up: dose 10 mg/kg, route intravenous; settings: in vivo
[21] = AUCt in fasted Wistar rat at 10 mg/kg, po; format: ADME, organism-based; set-up: dose 10 mg/kg, route oral; settings: plasma
[22] = AUCt in fasted Wistar rat at 10 mg/kg, iv; format: ADME, organism-based; set-up: dose 10 mg/kg, route intravenous; settings: plasma
[23] = Half life in fasted Wistar rat at 10 mg/kg, po; format: ADME, organism-based; set-up: dose 10 mg/kg, route oral; settings: in vivo
[24] = Half life in fasted Wistar rat at 10 mg/kg, iv; format: ADME, organism-based; set-up: dose 10 mg/kg, route intravenous; settings: in vivo
[25] = system: Rattus norvegicus; test: Apparent volume of distribution in fasted Wistar rat at 10 mg/kg, po; format: ADME, organism-based; set-up: dose 10 mg/kg, route oral; settings: in vivo
[26] = Apparent volume of distribution in fasted Wistar rat at 10 mg/kg, iv; format: ADME, organism-based; set-up: dose 10 mg/kg, route intravenous; settings: in vivo, read-out: Vz
[27] = Clearance in fasted Wistar rat at 10 mg/kg, po; format: ADME, organism-based; set-up: dose 10 mg/kg, route oral; settings: in vivo
[28] = Clearance in fasted Wistar rat at 10 mg/kg, iv; format: ADME, organism-based; set-up: dose 10 mg/kg, route intravenous; settings: in vivo
[29] = Oral bioavailability in fasted Wistar rat; format: ADME, organism-based; settings: in vivo
[30] = Ratio of drug level at steady state in brain to plasma in fasted Wistar rat; format: ADME; settings: read-out: BPR

5-hydroxytryptamine receptor 6, sequence (P50406 whole entry): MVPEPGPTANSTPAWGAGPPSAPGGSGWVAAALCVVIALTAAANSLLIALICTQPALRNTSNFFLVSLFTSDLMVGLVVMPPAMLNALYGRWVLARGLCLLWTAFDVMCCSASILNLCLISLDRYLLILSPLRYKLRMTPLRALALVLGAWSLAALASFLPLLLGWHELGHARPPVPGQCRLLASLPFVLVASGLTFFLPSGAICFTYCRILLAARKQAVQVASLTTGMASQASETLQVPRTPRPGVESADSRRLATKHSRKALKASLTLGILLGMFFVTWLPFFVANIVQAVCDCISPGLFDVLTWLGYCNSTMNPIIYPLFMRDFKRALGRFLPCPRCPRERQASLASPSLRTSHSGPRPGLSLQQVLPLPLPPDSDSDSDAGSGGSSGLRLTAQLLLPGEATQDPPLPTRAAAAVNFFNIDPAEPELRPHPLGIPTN

SMILES | Ki [1] [nM] | inhibition at 3 µM [2] [%] | inhibition at 10 µM [3] [%] | inhibition at 3 µM [4] [%] | inhibition at 10 µM [5] [%] | inhibition at 3 µM [6] [%] | inhibition at 10 µM [7] [%] | inhibition at 3 µM [8] [%] | inhibition at 10 µM [9] [%] | inhibition at 3 µM [10] [%] | inhibition at 10 µM [11] [%] | inhibition at 3 µM [12] [%] | inhibition at 10 µM [13] [%] | further results
CN1CCN(Cc2ccc3c(ccn3S(=O)(=O)c3ccccc3)c2)CC1 | – | 14.4 | 17.3 | -2.24 | 4.81 | 9.91 | 31.2 | -8.69 | 18.2 | 12 | 31.2 | 8.24 | 5.47 | –
CN1CCN(Cc2ccc3c(c2)c(Cl)cn3S(=O)(=O)c2ccc(F)cc2)CC1 | – | 3.4 | 26.9 | 14.1 | 19.8 | 10.1 | 21.5 | 6.42 | 9.13 | 6.42 | 15.2 | 2.6 | 39 | IC50 [14]: > 10000 nM; IC50 [15]: > 10000 nM; IC50 [16]: > 10000 nM
CN1CCN(Cc2ccc3c(ccn3S(=O)(=O)c3cccc(C(F)(F)F)c3)c2)CC1 | 3.15 | – | – | – | – | – | – | – | – | – | – | – | – | –
CN1CCN(Cc2ccc3c(c2)c(Cl)cn3S(=O)(=O)c2ccc(Cl)cc2)CC1 | 9.33 | – | – | – | – | – | – | – | – | – | – | – | – | –
CN1CCN(Cc2ccc3c(ccn3C(=O)c3ccccc3)c2)CC1 | > 1000 | – | – | – | – | – | – | – | – | – | – | – | – | –
O=S(=O)(c1ccc(F)cc1F)n1cc(Cl)c2cc(CN3CCNCC3)ccc21 | 5.57 | 14.5 | 14.6 | -3.62 | 6.37 | 31.9 | 72.9 | -12.6 | 27.8 | 1.46 | 17.7 | 26.4 | 45 | –
CCN1CCN(Cc2ccc3c(ccn3Cc3ccccc3)c2)CC1 | > 1000 | – | – | – | – | – | – | – | – | – | – | – | – | –

Now from value to compound, other results behind:

Ki [1] [nM] | inhibition at 3 µM [2] [%] | inhibition at 10 µM [3] [%] | inhibition at 3 µM [4] [%] | inhibition at 10 µM [5] [%] | inhibition at 3 µM [6] [%] | inhibition at 10 µM [7] [%] | inhibition at 3 µM [8] [%] | inhibition at 10 µM [9] [%] | inhibition at 3 µM [10] [%] | inhibition at 10 µM [11] [%] | inhibition at 3 µM [12] [%] | inhibition at 10 µM [13] [%] | SMILES | further results
28.2 | – | – | – | – | – | – | – | – | – | – | – | – | CCN1CCN(Cc2ccc3c(ccn3S(=O)(=O)c3ccc(Cl)cc3)c2)CC1 | –
– | 13.7 | 8.34 | -7.74 | 10.2 | 6.75 | 4.7 | -14.3 | 19.6 | 10.3 | 46 | 18.6 | 34.2 | CCN1CCN(Cc2ccc3c(ccn3S(=O)(=O)c3ccc(F)cc3)c2)CC1 | –
5.72 | – | – | – | – | – | – | – | – | – | – | – | – | CCN1CCN(Cc2ccc3c(ccn3S(=O)(=O)c3cccc(C(F)(F)F)c3)c2)CC1 | –
– | 3.64 | 17.9 | -0.39 | 10.8 | 22.8 | 43.6 | 7.47 | 15.9 | 48.3 | 76.2 | -3.67 | 32.9 | CCN1CCN(Cc2ccc3c(ccn3S(=O)(=O)c3ccccc3Br)c2)CC1 | Activity [17]: Active; Activity [18]: Active; IC50 [14]: > 10000 nM; IC50 [15]: > 10000 nM; IC50 [16]: 1420 nM; Cmax [19]: 13 ng/mL; Cmax [20]: 716 ng/mL; AUC(0-t) [21]: 59 ng·h/mL; AUC(0-t) [22]: 1380 ng·h/mL; half-life [23]: 6.04 h; half-life [24]: 2.1 h; Vz [25]: 1035.145 L/kg; Vd [26]: 21.8 L/kg; CL/F [27]: 2140 mL/min/kg; clearance [28]: 120 mL/min/kg; bioavailability [29]: 4.2%; Kp [30]: 19.3
11 | – | – | – | – | – | – | – | – | – | – | – | – | CCN1CCN(Cc2ccc3c(ccn3S(=O)(=O)c3ccc(C)cc3)c2)CC1 | –
– | 14.5 | 18.2 | -1.26 | 21.9 | 23.9 | 51.1 | 7.12 | 46.3 | 10.4 | 35.7 | 30.5 | 68.1 | CCN1CCN(Cc2ccc3c(ccn3S(=O)(=O)c3ccc(C(C)C)cc3)c2)CC1 | –

Reference: ChEMBL document CHEMBL1781973, “Novel and Potent 5-Piperazinyl Methyl-N 1-aryl Sulfonyl Indole Derivatives as 5-HT6 Receptor Ligands” (ACS Med Chem Lett, 2010)
